Measurements taken from ChEMBL document CHEMBL6109128, “Copper-KRAS-COX2 Axis: A Therapeutic Vulnerability in Pancreatic Cancer” (J Med Chem, 2025).
Blank lines part the entries; values can stand above or below the compound they belong to. The source made the active and inactive calls. The rule behind the calls is not given here.

Key:
PANC-1 = assay: Cytotoxicity against human PANC-1 cells by MTT assay; type: functional, cell-based
Panc02 [1] = assay: Cytotoxicity against mouse Panc02 cells by MTT assay; type: functional, cell-based
MIA PaCa-2 [2] = assay: Antiproliferative activity against human MIA PaCa-2 cells harboring KRAS; type: functional, cell-based
CT26 [3] = assay: Synergistic antiproliferative activity against mouse CT26 cells at 0.01 to 3 uM in presence of MRTX1133; type: functional, cell-based; settings: dose 0.01-3 µM
Panc02 [4] = assay: Synergistic antiproliferative activity against mouse Panc02 cells harboring wild type KRAS at 0.01 to 3 uM in presence of MRTX1133; type: functional, cell-based; settings: dose 0.01-3 µM
MIA PaCa-2 [5] = assay: Synergistic antiproliferative activity against human MIA PaCa-2 cells assessed as inhibition of colony formation at up to 0.5 uM in presence of CuSO4; type: functional, cell-based
MIA PaCa-2 [6] = assay: Synergistic antiproliferative activity against human MIA PaCa-2 cells assessed as inhibition of colony formation at up to 0.5 uM in presence of TTM; type: functional, cell-based
HCT-116 [7] = assay: Synergistic antiproliferative activity against human HCT-116 cells assessed as inhibition of colony formation at up to 1 uM incubated for 6 days in presence of napabucasin; type: functional, cell-based; settings: time 6.0 day
HCT-116 [8] = assay: Synergistic antiproliferative activity against human HCT-116 cells assessed as inhibition of colony formation at up to 1 uM incubated for 6 days in presence of celecoxib; type: functional, cell-based; settings: time 6.0 day
MIA PaCa-2 [9] = assay: Synergistic antiproliferative activity against human MIA PaCa-2 cells assessed as inhibition of colony formation at up to 1 uM incubated for 6 days in presence of celecoxib; type: functional, cell-based; settings: time 6.0 day
MIA PaCa-2 [10] = assay: Synergistic antiproliferative activity against human MIA PaCa-2 cells assessed as inhibition of colony formation at up to 1 uM incubated for 6 days in presence of MK-663; type: functional, cell-based; settings: time 6.0 day
MIA PaCa-2 [11] = assay: Synergistic antiproliferative activity against human MIA PaCa-2 cells assessed as inhibition of colony formation at up to 1 uM incubated for 6 days in presence of valdecoxib; type: functional, cell-based; settings: time 6.0 day
MIA PaCa-2 [12] = assay: Synergistic antiproliferative activity against human MIA PaCa-2 cells assessed as inhibition of colony formation at up to 1 uM incubated for 6 days in presence of lumira-coxib; type: functional, cell-based; settings: time 6.0 day
BXPC-3 [13] = assay: Synergistic antiproliferative activity against human BXPC-3 cells assessed as inhibition of colony formation at up to 1 uM incubated for 6 days in presence of valdecoxib; type: functional, cell-based; settings: time 6.0 day
MIA PaCa-2 [14] = assay: Induction of apoptosis in human MIA PaCa-2 cells assessed as increase in clonogenic survival up to 0.5 uM incubated for 6 days in presence of Z-VAD-FMK by crystal violet staining based analysis; type: functional, cell-based; settings: time 6.0 day
MIA PaCa-2 [15] = assay: Induction of apoptosis in human MIA PaCa-2 cells assessed as increase in clonogenic survival up to 0.5 uM incubated for 6 days in presence of necrostatin-1 by crystal violet staining based analysis; type: functional, cell-based; settings: time 6.0 day
BXPC-3 [16] = assay: Induction of apoptosis in human BXPC-3 cells assessed as increase in clonogenic survival up to 0.5 uM incubated for 6 days in presence of necrostatin-1 by crystal violet staining based analysis; type: functional, cell-based; settings: time 6.0 day
MIA PaCa-2 [17] = assay: Induction of apoptosis in human MIA PaCa-2 cells assessed as upregulation of cleaved PARP level at 10 uM measured for 48 hrs by Western blot analysis; type: functional, cell-based
MIA PaCa-2 [18] = assay: Induction of apoptosis in human MIA PaCa-2 cells assessed as upregulation of caspase 9 level at 10 uM measured for 48 hrs by Western blot analysis; type: functional, cell-based
HCT-116 [19] = assay: Induction of necroptosis in human HCT-116 cells assessed as increase in p-RIP3 level at 10 uM incubated for 1 hr by Western blot analysis; type: functional, cell-based
HCT-116 [20] = assay: Induction of ferroptosis in human HCT-116 cells at up to 1 uM in presence of erastin; type: functional, cell-based
MIA PaCa-2 [21] = assay: Induction of ferroptosis in human MIA PaCa-2 cells assessed as cell death at up to 1 uM in presence of ferrostatin-1; type: functional, cell-based
HCT-116 [22] = assay: Induction of ferroptosis in human HCT-116 cells assessed as cell death at up to 1 uM in presence of […]; type: functional, cell-based
HCT-116 [23] = assay: Induction of ferroptosis in human HCT-116 cells assessed as change in GPX4 level at 5 to 10 uM incubated for 18 hrs by Western blot analysis; type: functional, cell-based; settings: dose 5-10 µM
HCT-116 [24] = assay: Induction of autophagy in human HCT-116 cells assessed as cell death at up to 1 uM incubated for 6 days in presence of chloroquine; type: functional, cell-based; settings: time 6.0 day
HCT-116 [25] = assay: Induction of autophagy in human HCT-116 cells assessed as cell death at up to 1 uM incubated for 6 days in presence of MRT68921; type: functional, cell-based; settings: time 6.0 day
[26] = AUC in CD-1 mouse at 15 mg/kg, iv measured up to 24 hrs by LC-MS/MS analysis; type: ADME, organism-based; settings: in vivo
[27] = AUC (0 to infinity) in CD-1 mouse at 15 mg/kg, iv measured up to 24 hrs by LC-MS/MS analysis; type: ADME, organism-based; settings: in vivo
[28] = AUC (0 to infinity) in CD-1 mouse at 30 mg/kg, po measured up to 24 hrs by LC-MS/MS analysis; type: ADME, organism-based; settings: in vivo
[29] = Half life in CD-1 mouse at 15 mg/kg, iv measured up to 24 hrs by LC-MS/MS analysis; type: ADME, organism-based; settings: in vivo
[30] = Half life in CD-1 mouse at 30 mg/kg, po measured up to 24 hrs by LC-MS/MS analysis; type: ADME, organism-based; settings: in vivo
[31] = Clearance in CD-1 mouse at 15 mg/kg, iv measured up to 24 hrs by LC-MS/MS analysis; type: ADME, organism-based; settings: in vivo
[32] = Volume of distribution at steady state in CD-1 mouse at 15 mg/kg, iv measured up to 24 hrs by LC-MS/MS analysis; type: ADME, organism-based; settings: in vivo, read-out: Vdss
[33] = Toxicity in C57BL/6 mouse assessed as body weight loss at 20 to 40 mg/kg, ip administered for 28 days; type: organism-based; settings: in vivo, 672 h, dose 20-40 mg/kg, time 28 day
HCT-116 [34] = assay: Induction of apoptosis in human HCT-116 cells assessed as upregulation of cleaved PARP level measured for 48 hrs by Western blot analysis; type: functional, cell-based; settings: dose 10.0 µM
[35] = Drug concentration in mouse plasma at 15 mg/kg, iv measured at 7 hrs; type: ADME, organism-based
[36] = Drug concentration in mouse plasma at 30 mg/kg, po measured at 24 hrs; type: ADME, organism-based
[37] = Drug concentration in mouse kidney at 30 mg/kg, po measured at 7 hrs; type: ADME, organism-based; settings: read-out: Ct
[38] = Toxicity in BALB/c mouse assessed as pancrease damage at 20 mg/kg, po measured after 29 days by H and E staining based analysis; type: organism-based; settings: in vivo, 696 h, time 29 day
Panc02 [39] = assay: Antitumor activity against mouse Panc02 cells xenografted in C57BL/6 mouse assessed as tumor growth inhibition at 20 to 40 mg/kg, ip measured for 21 to 28 days; type: functional, organism-based; settings: dose 20-40 mg/kg, time 21-28 day
CT26 [40] = assay: Antitumor activity against mouse CT26 cells implanted in BALB/c mouse assessed as increase in cleaved caspase-3 level at 50 mg/kg, po measured after 14 days; type: functional, organism-based; settings: time 14.0 day

AUC at 24 h [26]: 6010 ng·h/mL
AUC(0-inf) [27]: 6090 ng·h/mL
AUC(0-inf) [28]: 6800 ng·h/mL
half-life [29]: 2.8 h
half-life [30]: 4.9 h
clearance [31]: 37.7 mL/min/kg
Vd [32]: 7.1 L/kg
Structure (SMILES): C[C@@H]1OCC2(CCN(c3cnc(C(=O)Nc4cc(F)cc5cccnc45)cn3)CC2)[C@@H]1N
IC50 (PANC-1): 2.9 µM
IC50 (Panc02 [1]): 2.1 µM
Activity (MIA PaCa-2 [2]): Active
Activity (CT26 [3]): Active
Activity (Panc02 [4]): inactive
Activity (MIA PaCa-2 [5]): Active
Activity (MIA PaCa-2 [6]): Active
Activity (HCT-116 [7]): Active
Activity (HCT-116 [8]): Active
Activity (MIA PaCa-2 [9]): Active
Activity (MIA PaCa-2 [10]): Active
Activity (MIA PaCa-2 [11]): Active
Activity (MIA PaCa-2 [12]): Active
Activity (BXPC-3 [13]): Active
Activity (MIA PaCa-2 [14]): Active
Activity (MIA PaCa-2 [15]): Active
Activity (BXPC-3 [16]): Active
Activity (MIA PaCa-2 [17]): Active
Activity (MIA PaCa-2 [18]): Active
Activity (HCT-116 [19]): Active
Activity (HCT-116 [20]): Active
Activity (MIA PaCa-2 [21]): inactive
Activity (HCT-116 [22]): inactive
Activity (HCT-116 [23]): Active
Activity (HCT-116 [24]): Active
Activity (HCT-116 [25]): Active
Activity [33]: Non-toxic

Structure (SMILES): N[C@@H]1[C@H]2CN(c3cnc(C(=O)Nc4cc(F)cc5cccnc45)cn3)C[C@@H]12
IC50 (PANC-1): 4.4 µM
IC50 (Panc02 [1]): 8 µM
Activity (MIA PaCa-2 [2]): Active
Activity (CT26 [3]): Active
Activity (Panc02 [4]): inactive
Activity (MIA PaCa-2 [5]): Active
Activity (MIA PaCa-2 [6]): Active
Activity (HCT-116 [7]): Active
Activity (HCT-116 [8]): Active
Activity (MIA PaCa-2 [9]): Active
Activity (MIA PaCa-2 [10]): Active
Activity (MIA PaCa-2 [11]): Active
Activity (MIA PaCa-2 [12]): Active
Activity (BXPC-3 [13]): Active
Activity (MIA PaCa-2 [14]): Active
Activity (MIA PaCa-2 [15]): Active
Activity (BXPC-3 [16]): Active
Activity (MIA PaCa-2 [17]): Active
Activity (MIA PaCa-2 [18]): Active
Activity (HCT-116 [34]): Dose-dependent-effect
Activity (HCT-116 [19]): Active
Activity (HCT-116 [20]): Active
Activity (MIA PaCa-2 [21]): inactive
Activity (HCT-116 [22]): inactive
Activity (HCT-116 [23]): Active
Activity (HCT-116 [24]): Active
Activity (HCT-116 [25]): Active
AUC at 24 h [26]: 3420 ng·h/mL
AUC(0-inf) [27]: 3450 ng·h/mL
AUC(0-inf) [28]: 3810 ng·h/mL
half-life [29]: 3 h
half-life [30]: 3.1 h
clearance [31]: 72.5 mL/min/kg
Vd [32]: 14.6 L/kg
concentration at 7 h [35]: 98 ng/mL
concentration at 24 h [36]: 7 ng/mL
concentration at 7 h [37]: 6100 ng/g
Activity [38]: Non-toxic
Activity [33]: Non-toxic
TGI (Panc02 [39]): Active
Activity (CT26 [40]): Active
